Source: patent US7732568B2, “Methods for preventing and treating Alzheimer's disease” (AFFIRIS Forschungs-und Entwicklungs GmbH, priority 2003, dated 2010)
“Also recorded” adds a separate entry of the source. Where no end group is shown, it is not given here.

How the values were obtained:
[1] = test system: biotinylated monoclonal antibody specific for DAEFRH (natural N-terminal Aβ42 sequence); test: Inhibition assay for additional mimotopes (competition ELISA), Example 4 (FIGS. 4 and 5); type: binding, mice; details: for inhibition of binding of the monoclonal antibody to the original epitope (in words) / IC50 of inhibition of monoclonal antibody recognition of the original epitope: FIGS. 4 and 5; for Inhibitory capacity of mimotopes (Table 2): summary grade: strong, intermediate, weak, none; for IC50 of inhibition of monoclonal antibody recognition of the original epitope: plate-bound DAEFRH-BSA 0.1 μg/ml, peptides at different concentrations, 20 min, 37° C.
Experimental: (§1) FIGS. 4 and 5 describe the results of inhibition assays performed with mimotope peptides included in and obtained from the 5 libraries (as described). The mimotope peptides compete with the original epitope for recognition by the monoclonal antibody. Original epitope and mimotope peptides contain an additional C at the C-terminus (position 7) for coupling to a protein carrier (if desired).
(§2) After blocking with PBS/BSA 1% (200 μl/well, 12 h, 4° C.), the plates are washed 3× times with PBS/Tween. Then, biotinylated monoclonal antibody (1:2000, 50 μl/well) and peptides (50 μl/well) at different concentrations are added for 20 min. at 37° C. The plates are washed 3× times with PBS/Tween and are incubated with horseradish peroxidase (HRP)-labeled streptavidin (100 μl/well, 30 min, RT). The plates are washed 5× times with PBS/Tween and are incubated with ABTS H2O2 (0.1% w/v, 10 to 45 min) and the reaction is stopped with citric acid followed by photometric evaluation (wavelength 405 nm).

[2] = test system: biotinylated monoclonal antibody specific for DAEFRH (natural N-terminal Aβ42 sequence); test: Inhibition assay (competition ELISA): mimotope peptides compete with plate-bound DAEFRH-BSA for the monoclonal antibody, Example 3 (FIGS. 2 and 3); type: binding, mice; details: for inhibition of binding of the monoclonal antibody to the original epitope (in words): peptides at 50 to 0.0005 μg/ml, FIGS. 2 and 3; for Inhibitory capacity of mimotopes (Table 1): summary grade: strong, intermediate, weak, none
Experimental: as §1, with “FIGS. 2” for “FIGS. 4”, “and 3” for “and 5”, “C-terminus” for “C-terminus (position 7)”
as §2, with “50, 5, 0.5, 0.05, 0.005, and 0.0005 μg/ml” for “different concentrations”, “ABTS+H2O2” for “ABTS H2O2”

[3] = test system: biotinylated DAEFRH-specific mAb; test: ELISA with peptide libraries: detection of mimotopes by the DAEFRH-specific mAb; type: binding, mice; details: mimotopes from peptide libraries 1, 2 and 3
Experimental: The ELISA with each of the peptide libraries have been carried out following standard protocols:
The peptide library is dissolved in 100% DMSO (final concentration 10 mg/ml).
The peptide solution is further diluted in PBS.
The peptide mixture is coated overnight (4° C.) onto ELISA plates (Nunc Maxisorp, Germany), starting with 500 μg/well, and titrated to 100 ng/well.
The plates are washed 3× times with PBS/Tween 20 (0.1% v/v).
The plates are blocked with PBS/BSA (2 h at room temperature).
The plates are washed 3× times with PBS/Tween.
The plates are incubated with biotinylated DAEFRH-specific mAb (DAEFRH sequence disclosed as SEQ ID NO: 1) (10 μg/ml in PBS) for 4 h at room temperature.
The plates are incubated with streptavidin-horseradish-peroxidase (30 min at room temperature).
The plates are washed 5× times with PBS/Tween.
The plates are incubated with ABTS+H2O2 (0.1% w/v; 10 to 45 min) and the reaction is stopped with citric acid followed by photometric evaluation (wavelength 405 nm).

[4] = biological target: DAEFRH-specific monoclonal antibody (mAb) produced according to example 1; test: competition ELISA: soluble peptide vs plate-bound DAEFRH-C-BSA for biotinylated mAb, FIG. 5

## CC[C@H](C)[C@H](NC(=O)[C@H](CCCNC(=N)N)NC(=O)[C@H](CC(C)C)NC(=O)[C@H](CCC(=O)O)NC(=O)[C@H](CCCNC(=N)N)NC(=O)[C@@H](N)CC(=O)O)C(=O)N[C@@H](CS)C(=O)O [Peptide 1235, DRELRI]
[1]
  inhibition of binding of the monoclonal antibody to the original epitope (in words): block epitope recognition
  Inhibitory capacity of mimotopes (Table 2): strong

## CC[C@H](C)[C@H](NC(=O)[C@H](CCCCN)NC(=O)[C@H](CC(C)C)NC(=O)[C@H](CCC(=O)O)NC(=O)[C@H](CCCCN)NC(=O)[C@@H](N)CC(=O)O)C(=O)N[C@@H](CS)C(=O)O [Peptide 1236, DKELKI]
[1]
  inhibition of binding of the monoclonal antibody to the original epitope (in words): block epitope recognition
  Inhibitory capacity of mimotopes (Table 2): weak

## CC[C@H](C)[C@H](NC(=O)[C@H](CCCCN)NC(=O)[C@H](CC(C)C)NC(=O)[C@H](CCC(=O)O)NC(=O)[C@H](CCCNC(=N)N)NC(=O)[C@@H](N)CC(=O)O)C(=O)N[C@@H](CS)C(=O)O [Peptide 1237, DRELKI]
[1]
  inhibition of binding of the monoclonal antibody to the original epitope (in words): block epitope recognition
  Inhibitory capacity of mimotopes (Table 2): weak

## N=C(N)NCCC[C@H](NC(=O)[C@H](Cc1ccccc1)NC(=O)[C@H](CCC(=O)O)NC(=O)[C@H](Cc1ccc(O)cc1)NC(=O)[C@@H](N)CCC(=O)O)C(=O)NCC(=O)N[C@@H](CS)C(=O)O [Peptide 1239, EYEFRG]
[1]
  inhibition of binding of the monoclonal antibody to the original epitope (in words): block epitope recognition
  IC50 of inhibition of monoclonal antibody recognition of the original epitope: more than 0.5 μg/ml
  Inhibitory capacity of mimotopes (Table 2): intermediate

## C[C@H](NC(=O)[C@H](CC(=O)O)NC(=O)[C@H](CCCNC(=N)N)NC(=O)[C@H](Cc1ccccc1)NC(=O)[C@H](CCC(=O)O)NC(=O)[C@H](Cc1c[nH]c2ccccc12)NC(=O)[C@@H](N)CC(=O)O)C(=O)N[C@@H](CS)C(=O)O [Peptide 1241, DWEFRDA]
[1]
  inhibition of binding of the monoclonal antibody to the original epitope (in words): block epitope recognition
  Inhibitory capacity of mimotopes (Table 2): strong

## CC[C@H](C)[C@H](NC(=O)[C@H](CCCNC(=N)N)NC(=O)[C@H](CC(C)C)NC(=O)[C@H](CCC(=O)O)NC(=O)[C@H](CCCCN)NC(=O)[C@@H](N)CC(=O)O)C(=O)N[C@@H](CS)C(=O)O [Peptide 3001, DKELRI]
[2]
  inhibition of binding of the monoclonal antibody to the original epitope (in words): block epitope recognition
  Inhibitory capacity of mimotopes (Table 1): strong

## CC[C@H](C)[C@H](NC(=O)[C@H](CCCNC(=N)N)NC(=O)[C@H](CC(C)C)NC(=O)[C@H](CCC(=O)O)NC(=O)[C@H](Cc1c[nH]c2ccccc12)NC(=O)[C@@H](N)CC(=O)O)C(=O)N[C@@H](CS)C(=O)O [Peptide 3002, DWELRI]
[2]
  inhibition of binding of the monoclonal antibody to the original epitope (in words): block epitope recognition
  Inhibitory capacity of mimotopes (Table 1): intermediate

## C[C@H](NC(=O)[C@@H](N)Cc1ccc(O)cc1)C(=O)N[C@@H](CCC(=O)O)C(=O)N[C@@H](Cc1ccccc1)C(=O)N[C@@H](CCCNC(=N)N)C(=O)NCC(=O)N[C@@H](CS)C(=O)O [Peptide 3005, YAEFRG]
[2]
  inhibition of binding of the monoclonal antibody to the original epitope (in words): block epitope recognition
  Inhibitory capacity of mimotopes (Table 1): intermediate

## C[C@H](NC(=O)[C@@H](N)CCC(=O)O)C(=O)N[C@@H](CCC(=O)O)C(=O)N[C@@H](Cc1ccccc1)C(=O)N[C@@H](CCCNC(=N)N)C(=O)NCC(=O)N[C@@H](CS)C(=O)O [Peptide 3006, EAEFRG]
[2]
  inhibition of binding of the monoclonal antibody to the original epitope (in words): block epitope recognition
  Inhibitory capacity of mimotopes (Table 1): strong

## N=C(N)NCCC[C@H](NC(=O)[C@H](Cc1ccccc1)NC(=O)[C@H](CCC(=O)O)NC(=O)[C@H](Cc1ccc(O)cc1)NC(=O)[C@@H](N)CC(=O)O)C(=O)NCC(=O)N[C@@H](CS)C(=O)O [Peptide 3007, DYEFRG]
[2]
  inhibition of binding of the monoclonal antibody to the original epitope (in words): block epitope recognition
  Inhibitory capacity of mimotopes (Table 1): strong

## CC(C)C[C@H](NC(=O)[C@@H](N)CCC(=O)O)C(=O)N[C@@H](CCC(=O)O)C(=O)N[C@@H](Cc1ccccc1)C(=O)N[C@@H](CCCNC(=N)N)C(=O)NCC(=O)N[C@@H](CS)C(=O)O [Peptide 3008, ELEFRG]
[2]
  Inhibitory capacity of mimotopes (Table 1): weak

## N=C(N)NCCC[C@H](NC(=O)[C@H](Cc1ccccc1)NC(=O)[C@H](CCC(=O)O)NC(=O)[C@H](Cc1ccccc1)NC(=O)[C@@H](N)CO)C(=O)NCC(=O)N[C@@H](CS)C(=O)O [Peptide 3009, SFEFRG]
[2]
  Inhibitory capacity of mimotopes (Table 1): weak

## C[C@@H](O)[C@H](NC(=O)[C@H](CCCNC(=N)N)NC(=O)[C@H](Cc1ccccc1)NC(=O)[C@H](CCC(=O)O)NC(=O)[C@H](Cc1c[nH]c2ccccc12)NC(=O)[C@@H](N)CO)C(=O)N[C@@H](CS)C(=O)O [Peptide 4002, SWEFRT]
[1]
  inhibition of binding of the monoclonal antibody to the original epitope (in words): block epitope recognition
  IC50 of inhibition of monoclonal antibody recognition of the original epitope: less than 0.4 μg/ml
  Inhibitory capacity of mimotopes (Table 2): strong

## DAEFRH (not fully specified (C-terminus)) [Peptide 1737, reference compound]
[2]
  inhibition of binding of the monoclonal antibody to the original epitope (in words): inhibits recognition by the monoclonal antibody; also recorded: can successfully compete
[1]
  inhibition of binding of the monoclonal antibody to the original epitope (in words): inhibits recognition by the monoclonal antibody; also recorded: can successfully compete

## DIDYHR
[3]
  detection by the monoclonal antibody produced according to example 1: can be detected

## DIDYRR [DLDYRR (SEQ ID NO: 97)]
[3]
  detection by the monoclonal antibody produced according to example 1: can be detected

## DIGWRG [Peptide 3011]
[2]
  inhibition of binding of the monoclonal antibody to the original epitope (in words): not inhibitory at the concentrations tested
  Inhibitory capacity of mimotopes (Table 1): none

## DISFRG [Peptide 3010]
[2]
  inhibition of binding of the monoclonal antibody to the original epitope (in words): not inhibitory at the concentrations tested
  Inhibitory capacity of mimotopes (Table 1): none

## DLDYHR
[3]
  detection by the monoclonal antibody produced according to example 1: can be detected

## DLDYRR [DLDYRR (SEQ ID NO: 98)]
[3]
  detection by the monoclonal antibody produced according to example 1: can be detected

## DVDYHR
[3]
  detection by the monoclonal antibody produced according to example 1: can be detected

## DVDYRR
[3]
  detection by the monoclonal antibody produced according to example 1: can be detected

## EIDYHR
[3]
  detection by the monoclonal antibody produced according to example 1: can be detected

## ELDYHR
[3]
  detection by the monoclonal antibody produced according to example 1: can be detected

## EVDYHR
[3]
  detection by the monoclonal antibody produced according to example 1: can be detected

## GREFRN [Peptide 4003]
[1]; FIG. 4
  concentration at which the peptide is only inhibitory: 10 µg/mL
[1]
  inhibition of binding of the monoclonal antibody to the original epitope (in words): block epitope recognition
  Inhibitory capacity of mimotopes (Table 2): weak

## KKELRI [Peptide 1234]
[1]
  inhibition of binding of the monoclonal antibody to the original epitope (in words): hardly inhibitory at the concentrations tested
  Inhibitory capacity of mimotopes (Table 2): none

## WHWSWR [Peptide 4004]
[1]
  inhibition of binding of the monoclonal antibody to the original epitope (in words): not able to inhibit binding of the monoclonal antibody to the original epitope
  Inhibitory capacity of mimotopes (Table 2): none

## YREFFI [Peptide 3003]
[2]
  inhibition of binding of the monoclonal antibody to the original epitope (in words): not able to inhibit binding of the monoclonal antibody to the original epitope
  Inhibitory capacity of mimotopes (Table 1): none

## YREFRI [Peptide 3004]
[2]; FIG. 2
  concentration at which the peptide is only inhibitory: 50 µg/mL
[2]
  inhibition of binding of the monoclonal antibody to the original epitope (in words): block epitope recognition
  Inhibitory capacity of mimotopes (Table 1): weak

## DRELRIC [Peptide 1235 DRELRI]
[4]
  IC50: < 0.5 µg/mL

## DKELRC [Peptide 1238 DKELR]
[4]
  IC50: < 0.5 µg/mL

## DWEFRDAC [Peptide 1241 DWEFRDA]
[4]
  IC50: < 0.5 µg/mL
